pIC50: −log10 of the molar value.
Experiments:
Hep G2 cells = assay type: in vitro ADME, human; settings: human, 24 h
Excerpt: Mitochondrial oxysterols, including cholestenoic acid (CA), 25-hydroxycholesterol (25HC), and 27-hydroxycholesterol (27HC), are potent regulators involved in important biological events such as lipid metabolism and inflammatory responses. However, their intracellular catabolic pathways have not been fully explored. In this study, we investigated the metabolic pathways of these oxysterols and their roles in the communication between hepatocytes and macrophages.

HepG-2 cells = test: Untargeted lipidomics analysis; assay type: cell-based, human
Method: HepG-2 cells were cultured in DMEM medium with HG for 72 hours followed by treating with 20 μM CA for 24, 48, and 72 hours. The cells were harvested with 500 μl 1× PBS, and sent to Creative Proteomics Co., Ltd (New York, USA) for untargeted lipidomics analysis. Samples were thawed and 1.5 mL chloroform:methanol (2:1, v/v) added to sample, vortexed for 1 min, and followed by sonication for 30 min, 4° C. Then centrifuge 10 min at 12,000 rpm, 4° C., transfer the lower phase to a new tube, dry under the nitrogen. The dried extract with 200 μl of isopropyl alcohol:methanol (1:1, v/v); add 5 μl LPC (12:0) for internal standard. Finally, centrifuge 10 min at 12,000 rpm, 4° C.; transfer the supernatant for LC-MS analysis. Separation is performed by UltiMate™ 3000 LC combined with Q Exactive™ MS (Thermo) and screened with ESI-MS. The LC system is comprised of ACQUITY UPLC® BEH C18 (100×2.1 mm×1.7 μm) with UltiMate™ 3000 LC. The mobile phase is composed of solvent A (60% ACN+40% H2O+10 mM HCOONH4) and solvent B (10% ACN+90% isopropyl alcohol+10 mM HCOONH4) with a gradient elution (0-10.5 min, 30%-100% B; 10.5 min-12.5 min, 100% B; 12.5-12.51 min, 100%-30% B; 12.51-16.0 min, 30% B). The flow rate of the mobile phase is 0.3-1 mL·min. The column temperature is maintained at 40° C., and the sample manager temperature is set at 4° C. Mass spectrometry parameters in ESI+ and ESI− mode are listed as follows: ESI+: Heater Temp 300° C.; Sheath Gas Flow rate, 45 arb; Aux Gas Flow Rate, 15 arb; Sweep Gas Flow Rate, larb; spray voltage, 3.0 KV; Capillary Temp, 350° C.; S-Lens RF Level, 30%. ESI−: Heater Temp 300° C., Sheath Gas Flow rate, 45 arb; Aux Gas Flow Rate, 15 arb; Sweep Gas Flow Rate, larb; spray voltage, 3.2 KV; Capillary Temp, 350° C.; S-Lens RF Level, 60%.

recombinant DNMT3a = recombinant DNMT3a (Homo sapiens, UniProt Q9Y6K1); test: DNMT3a enzyme kinetic (activity) assay, 3H-SAM filter; assay type: biochemical; settings: read-out: IC50, inhibits DNMT3a activity
Chain of recombinant DNMT3a (Q9Y6K1 whole entry, looked up): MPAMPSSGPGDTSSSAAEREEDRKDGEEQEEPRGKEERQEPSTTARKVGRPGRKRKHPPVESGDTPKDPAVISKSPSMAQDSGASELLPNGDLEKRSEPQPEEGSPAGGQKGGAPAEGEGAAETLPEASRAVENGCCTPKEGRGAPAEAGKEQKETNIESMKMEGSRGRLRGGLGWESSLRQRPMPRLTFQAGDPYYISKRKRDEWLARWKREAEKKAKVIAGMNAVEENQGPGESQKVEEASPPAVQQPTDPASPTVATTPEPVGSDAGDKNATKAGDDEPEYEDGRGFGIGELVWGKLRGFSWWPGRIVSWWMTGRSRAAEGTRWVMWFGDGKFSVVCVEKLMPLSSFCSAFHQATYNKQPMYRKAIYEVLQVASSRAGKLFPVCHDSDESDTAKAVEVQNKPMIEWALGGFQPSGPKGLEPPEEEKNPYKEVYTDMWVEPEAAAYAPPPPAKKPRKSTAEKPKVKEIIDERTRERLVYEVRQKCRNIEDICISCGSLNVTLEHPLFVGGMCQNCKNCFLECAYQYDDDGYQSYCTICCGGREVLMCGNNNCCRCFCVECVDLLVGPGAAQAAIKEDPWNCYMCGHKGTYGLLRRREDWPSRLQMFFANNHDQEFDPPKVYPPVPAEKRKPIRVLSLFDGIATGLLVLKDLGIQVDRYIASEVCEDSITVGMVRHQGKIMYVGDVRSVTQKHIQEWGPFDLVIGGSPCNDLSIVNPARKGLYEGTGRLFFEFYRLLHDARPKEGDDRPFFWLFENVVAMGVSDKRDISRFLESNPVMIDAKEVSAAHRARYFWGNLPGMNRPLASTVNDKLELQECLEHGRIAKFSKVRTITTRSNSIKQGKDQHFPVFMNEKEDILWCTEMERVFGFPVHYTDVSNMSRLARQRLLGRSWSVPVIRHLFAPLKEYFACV
Method: The enzyme kinetic studies were carried out by Reaction Biology Company. For the DNMT1 activity assay, the substrate solution, 0.001 mg/ml Poly(dI-dC): Poly(dI-dC) in 50 mM Tris-HCl, pH 7.5, 50 mM NaCl, 5 mM EDTA, 5 mM DTT, 1 mM PMSF, 5% glycerol, 0.01% Brij™35, 1% DMSO was used. For the DNMT3a/3b activity assay, 0.0075 mg/ml Lambda DNA in 50 mM Tris-HCl, pH 7.5, 50 mM NaCl, 5 mM EDTA, 5 mM DTT, 1 mM PMSF, 5% glycerol, 1% DMSO, was used. The indicated DNMT1, DNMT3a and DNMT3b were added to the appropriate substrate solution and gently mixed. Amounts of CA ranging from 5.08E-09 to 0.0001 M in DMSO were added to the reaction mixture by using Acoustic Technology (Echo® 550, LabCyte Inc. Sunnyvale, CA). The mixtures were first incubated for 15 min, then ^3H-SAM was added to the reaction mixture to initiate the reaction, and the mixture was incubated for 60 min at 30° C. Following incubation, the reaction mixture was finally transferred to filter-paper for detection of radioactivity counts.

SMILES: CC(CCC[C@@H](C)[C@H]1CC[C@H]2[C@@H]3CC=C4C[C@@H](O)CC[C@]4(C)[C@H]3CC[C@]12C)C(=O)O (stereo partly drawn) [CA, 3β-hydroxy-5-cholestenoic acid]
- maximum of novel molecular ion m/z 495 (CA3S) formed from CA (Hep G2 cells): 90%
- average decreased percentage of ChE (cholesterol ester) (HepG-2 cells; 20 μM CA, 48 hours): 47%
- average decreased percentage of DG (Diglycerides) (HepG-2 cells; 20 μM CA, 48 hours): 76%
- average decreased percentage of FA (HepG-2 cells; 20 μM CA, 48 hours): 65%
- average decreased percentage of MG (Monoglycerides) (HepG-2 cells; 20 μM CA, 48 hours): 53%
- average decreased percentage of TG (Triglycerides) (HepG-2 cells; 20 μM CA, 48 hours): 70%
- lipid levels (GP, SP, GL, ST, FA) (HepG-2 cells; HG medium 72 hours, then 20 μM CA): significantly decreased
- pIC50 (recombinant DNMT3a): 5.08

From patent publication US20260137701A1, “CHOLESTENOIC ACID (CA) AND A SULFATED DERIVATIVE THEREOF, 3[BETA]-SULFATE-5-CHOLESTENOIC ACID (CA3S), AS ENDOGENOUS EPIGENETIC REGULATORS” (priority 2022, published 2026)
